Source: ChEMBL document CHEMBL1201862, “PubChem BioAssay data set” (2004)
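In this assay, cells in 96-well plates receive the compound at five concentrations for 48 hours. Endpoints are linearly interpolated between the surrounding concentrations. GI50 marks 50% less growth.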 The source made the active and inactive calls. No stated cut-off is given here; in the data, active = GI50 up to about 1.1 µM and inactive = higher.

Columns and labels:
Assay in all cases: DTP human tumour cell line panel, 48 h
[1] = tested on: HOP-62
[2] = tested on: UO-31
[3] = tested on: UACC-257
[4] = tested on: SF-295
[5] = tested on: Malme-3M
[6] = tested on: PC-3
[7] = tested on: DU-145
[8] = tested on: TK-10
[9] = tested on: EKVX
[10] = tested on: OVCAR-4
[11] = tested on: NCI-H226
[12] = tested on: SK-MEL-2
[13] = tested on: SK-MEL-5
[14] = tested on: OVCAR-5
[15] = tested on: MCF7
[16] = tested on: HCT-116
[17] = tested on: A549
[18] = tested on: IGROV-1

| SMILES | GI50 [1] | GI50 [2] | GI50 [3] | GI50 [4] | GI50 [5] | GI50 [6] | GI50 [7] | GI50 [8] | GI50 [9] | GI50 [10] | GI50 [11] | GI50 [12] | GI50 [13] | GI50 [14] | GI50 [15] | GI50 [16] | GI50 [17] | GI50 [18] |
| --- | --- | --- | --- | --- | --- | --- | --- | --- | --- | --- | --- | --- | --- | --- | --- | --- | --- | --- |
| CCOP(=O)(OCC)C1CC(O)CN1OC(=O)C(C)(C)C (centres undefined) | > 100 µM (inactive) | > 100 µM (inactive) | > 100 µM (inactive) | > 100 µM (inactive) | > 100 µM (inactive) | > 100 µM (inactive) | > 100 µM (inactive) | > 100 µM (inactive) | > 100 µM (inactive) | > 100 µM (inactive) | > 100 µM (inactive) | > 100 µM (inactive) | > 100 µM (inactive) | > 100 µM (inactive) | > 100 µM (inactive) | > 100 µM (inactive) | > 100 µM (inactive) | > 100 µM (inactive) |
| O=C(CSC(=S)N1CCOCC1)Nc1nc2c(s1)CCCC2 | > 100 µM (inactive) | 41.4 µM (inactive) | 45.7 µM (inactive) | > 100 µM (inactive) | 45.3 µM (inactive) | – | – | > 100 µM (inactive) | 99.5 µM (inactive) | > 100 µM (inactive) | > 100 µM (inactive) | > 100 µM (inactive) | 35.5 µM (inactive) | > 100 µM (inactive) | – | > 100 µM (inactive) | > 100 µM (inactive) | > 100 µM (inactive) |
| CCOc1ccc(NC(=O)CC2SC(Nc3ccc(Cl)cc3)=NC2=O)cc1 (centres undefined) | > 100 µM (inactive) | > 100 µM (inactive) | > 100 µM (inactive) | > 100 µM (inactive) | > 100 µM (inactive) | – | – | > 100 µM (inactive) | > 100 µM (inactive) | > 100 µM (inactive) | > 100 µM (inactive) | > 100 µM (inactive) | > 100 µM (inactive) | > 100 µM (inactive) | – | – | > 100 µM (inactive) | > 100 µM (inactive) |
| Oc1ccc2c(c1)CC[N+]1=C2CCC2CCCC21 (centres undefined) [QUINDONIUM BROMIDE] | – | > 100 µM (inactive) | – | > 100 µM (inactive) | – | – | – | > 100 µM (inactive) | > 100 µM (inactive) | > 100 µM (inactive) | > 100 µM (inactive) | > 100 µM (inactive) | > 100 µM (inactive) | > 100 µM (inactive) | – | > 100 µM (inactive) | > 100 µM (inactive) | > 100 µM (inactive) |
| O=c1ccc2ccc(O)c3c4c(O)ccc5ccc(=O)c(c1c23)c54 | 2.72 µM (inactive) | 1.65 µM (inactive) | 1.49 µM (inactive) | 2.69 µM (inactive) | 0.371 µM (active) | – | – | 2.67 µM (inactive) | 3.38 µM (inactive) | – | 2.04 µM (inactive) | 1.45 µM (inactive) | 1.14 µM (inactive) | – | – | 1.43 µM (inactive) | 2.95 µM (inactive) | 1.82 µM (inactive) |
| O=C(N/C(=C\c1ccc(Br)cc1)c1nc2ccccc2s1)c1ccccc1 | – | 40.3 µM (inactive) | > 100 µM (inactive) | – | > 100 µM (inactive) | – | – | > 100 µM (inactive) | 37.5 µM (inactive) | 30.8 µM (inactive) | > 100 µM (inactive) | > 100 µM (inactive) | 36 µM (inactive) | > 100 µM (inactive) | – | 53 µM (inactive) | 61.4 µM (inactive) | 75.2 µM (inactive) |
| C=C1C(=O)OC2(C)C3CCC(C3)C12 (centres undefined) | > 100 µM (inactive) | > 100 µM (inactive) | – | > 100 µM (inactive) | 44.1 µM (inactive) | – | – | 36.3 µM (inactive) | 81.8 µM (inactive) | 54.5 µM (inactive) | > 100 µM (inactive) | 39.4 µM (inactive) | 87.1 µM (inactive) | > 100 µM (inactive) | – | 37.6 µM (inactive) | > 100 µM (inactive) | > 100 µM (inactive) |
